A word on the Kd: it is the free concentration of one partner at which half of the binding sites on the other are occupied at equilibrium, for simple one-to-one binding.

In one data set the target is T1, MGlcR (Paracoccus denitrificans, UniProt A1BAC0).
T1 construct: gene Pden_4400; Ni-NTA purified
T1 sequence (A1BAC0 1-269): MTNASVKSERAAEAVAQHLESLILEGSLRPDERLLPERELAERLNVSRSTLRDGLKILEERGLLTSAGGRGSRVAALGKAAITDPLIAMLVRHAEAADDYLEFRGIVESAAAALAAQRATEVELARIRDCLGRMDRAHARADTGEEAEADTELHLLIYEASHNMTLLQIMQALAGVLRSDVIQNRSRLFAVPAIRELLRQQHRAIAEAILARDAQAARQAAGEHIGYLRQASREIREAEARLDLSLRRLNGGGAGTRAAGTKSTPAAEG
Description: fluorescence polarization, effector titration of 6FAM-Pglc-MGlcR complex. Particulars: 0.1-100 mM effector, 750 nM MGlcR, 10 nM Pglc; pH 7.5, room temperature; effector decreasing DNA binding. In general terms: Polarisation of emitted light reports the rotation of a fluorescent probe.

A further data set addresses T2, GlcR (Paracoccus denitrificans, UniProt A1BAC0).
T2 construct: gene Pden_4400; full length, pET16b His tag (cutting not mentioned), E. coli BL21 AI; Ni-NTA and size exclusion
T2 sequence (A1BAC0 1-269): T1 sequence (A1BAC0 1-269)
Description: EMSA of Pglc DNA-GlcR complex with effector. Particulars: 0.5-2 mM effector; pH 7.0, 37 °C; effector decreasing DNA binding.

The target of another data set is T3, BhcR (Paracoccus denitrificans, UniProt A1B8Z4).
T3 construct: full length, pET16b His tag (cutting not mentioned), E. coli BL21 AI; Ni-NTA and size exclusion
Description: EMSA of Pbhc DNA-BhcR complex with effector. In kind it is binding. Particulars: 0.1-5 mM effector, pH 7.0, 37 °C. (A gel shift assay detects complexes by their altered migration in electrophoresis.)

Data set [1] has as its target T4, GlcR (Paracoccus denitrificans DSM 413) (UniProt A1BAC0).
T4 sequence: T1 sequence (A1BAC0 1-269)
Nature of the data set: EMSA. The conditions noted are these: EMSA: 20 mM K phosphate pH 7.0, 1 mM DTT, 5 mM MgCl2, 50 mM KCl, 15 ug/mL BSA, 50 ug/mL herring sperm DNA, 5% glycerol, 0.1% Tween20, DNA 0.025 pM, 37 C ….

The target in data set [2] is T5, MGlcR (MBP-GlcR) (Paracoccus denitrificans DSM 413) (UniProt A1BAC0).
T5 sequence: T1 sequence (A1BAC0 1-269)
Description: fluorescence polarization.

Data set [3] deals with BhcR (Paracoccus denitrificans DSM 413) (UniProt A1B8Z4). Nature of the data set: EMSA. The conditions noted are these: EMSA: 20 mM K phosphate pH 7.0, 1 mM DTT, 5 mM MgCl2, 50 mM KCl, 15 ug/mL BSA, 50 ug/mL herring sperm DNA, 5% glycerol, 0.1% Tween20, DNA 0.025 pM, 37 C ….
Setting [4] is: effector increasing DNA binding.
Where [5] appears, read: EMSA: 20 mM K phosphate pH 7.0, 1 mM DTT, 5 mM MgCl2, 50 mM KCl, 15 ug/mL BSA, 50 ug/mL herring sperm DNA, 5% glycerol, 0.1% Tween20, DNA 0.025 pM, 37 C ….

Chain of BhcR (Paracoccus denitrificans DSM 413) (A1B8Z4 whole entry): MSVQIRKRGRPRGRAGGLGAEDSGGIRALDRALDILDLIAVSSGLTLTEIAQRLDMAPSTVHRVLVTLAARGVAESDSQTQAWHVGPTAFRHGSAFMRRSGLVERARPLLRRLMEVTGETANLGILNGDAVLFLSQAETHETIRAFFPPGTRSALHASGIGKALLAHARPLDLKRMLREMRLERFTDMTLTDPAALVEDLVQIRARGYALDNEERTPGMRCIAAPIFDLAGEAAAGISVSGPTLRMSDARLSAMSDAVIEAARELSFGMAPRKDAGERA
T3 sequence (A1B8Z4 whole entry): as above

Turning to `O=C(O)CO` [glycolate], the “fluorescence polarization, effector titration of 6FAM-Pglc-MGlcR complex” value on MGlcR was “Titration of the Pglc-MGlcR complex with increasing concentrations of glycolate demonstrated a notable decrease in binding”. Besides, the “EMSA of Pglc DNA-GlcR complex with effector” value at GlcR was “DNA binding was decreased in the presence of glycolate”.

As to `O=CC(=O)O` [glyoxylate], at BhcR (effector decreasing DNA binding), the “EMSA of Pbhc DNA-BhcR complex with effector” value was “the interaction of BhcR with Pbhc was negatively affected by increasing concentrations of glyoxylate”.

In the case of `O=C(O)C(=O)O` [oxalate], the “EMSA of Pbhc DNA-BhcR complex with effector” value on BhcR (setting [4]) is “the DNA-binding interaction was positively affected by the presence of pyruvate or oxalate”. Same read-out and setting: with `CC(=O)C(=O)O` [pyruvate] the entry was “the DNA-binding interaction was positively affected by the presence of pyruvate or oxalate”. Consider “CAAGCTCTCCTCCCTTGGTCGAACGGCAGGCCCGTGTCCTGCCCTGCATTCTTGGTATAATTTTCAGACCACATTAGTCAATCGGTATTTTTCTGGACCGACACGCCCGTCCTGTGCTTACATGGCAGGGATCCGACAACCGCATGAGCGCCCATG (double strand) [Pglc 156 bp]”, for which the binding entry in data set [1] is “binds”. “GCTCTCCTCCCTTGGTCGAACGGCAGGCCCGTGTCCTGCCCTGCATTCTTGGTATAATTTTCAGACCACATTAGTCAATCGGTATTTTTCTGGACCGACACGCCCGTCCTGTGCTTACATGGCAGGGATCCGACAACCGCATGAGCGCCC (double strand) [[6FAM]-Pglc]”: in data set [2] (setting [5]), the Kd was found to be 225 nM and the binding result is “binds”. Turning to “GGAATGAAGATCGGGTTCTGGCTGGTCATGGCAATTCCTCCTGCGCTTGTGGACCAAGCTACGTTTTGCTGTCCATTGATGCAATTTTTCTGAAAAATATTTCGCAATCGCGGAAAAATGACCTAAAGTGTCGTGGAATCAGATCGTTGCTCTTTTCCAAAGCCAAAGAGTGATTTTCAACAAACTCAGAAAGTTGTCGAAAGGAAAAATTGAATGTCGGTTCAAATCCGCAAAAGGG (double strand) [Pbhc 238 bp]”, the binding entry in data set [3] is “binds”. On to [6FAM]-Pglc, for which, in data set [2] (10 nM DNA), the dissociation constant (Kd) amounted to 225 nM.

Source of the values: PMC11323563, “Multiple levels of transcriptional regulation control glycolate metabolism in Paracoccus denitrificans” (mBio, 2024).
